Results reported in paper PMC5218480 (PLoS ONE, 2017).

Test system: MV-4-11 cells
Assay: Gene expression microarray analysis (Affymetrix PrimeView) and GSEA
Assay type: cell-based, human
Set-up: RFU PODN (11730768_x_at) / Fold change /veh PODN (11730768_x_at) / RFU LINC00158 (11744669_a_at) / Fold change /veh LINC00158 (11744669_a_at) / RFU DUSP10 (11751237_a_at) / Fold change /veh DUSP10 (11751237_a_at) / RFU ID3 (11757404_x_at) / Fold change /veh ID3 (11757404_x_at) / RFU PLEKHG5 (11737974_s_at) / Fold change /veh PLEKHG5 (11737974_s_at) / RFU LRRC4B (11730491_at) / Fold change /veh LRRC4B (11730491_at) / RFU GIMAP4 (11747438_a_at) / Fold change /veh GIMAP4 (11747438_a_at) / RFU KRT8 (11758183_x_at) / Fold change /veh KRT8 (11758183_x_at) / RFU CNN1 (11734310_a_at) / Fold change /veh CNN1 (11734310_a_at) / RFU VPS37D (11726825_at) / Fold change /veh VPS37D (11726825_at) / RFU C10orf10 (11716522_x_at) / Fold change /veh C10orf10 (11716522_x_at) / RFU KIR2DL2 /// KIR2DL4 /// KIR2DL5A /// KIR2DL5B /// KIR2DS1 /// KIR2DS2 /// KIR2DS3 /// KIR2DS4 /// KIR3DL3 /// KIR3DL3 /// KIR3DS1 (11738374_at) / Fold change /veh KIR2DL2 /// KIR2DL4 /// KIR2DL5A /// KIR2DL5B /// KIR2DS1 /// KIR2DS2 /// KIR2DS3 /// KIR2DS4 /// KIR3DL3 /// KIR3DL3 /// KIR3DS1 (11738374_at) / RFU C1QL1 (11718748_at) / Fold change /veh C1QL1 (11718748_at) / RFU TMPRSS4 (11747572_a_at) / Fold change /veh TMPRSS4 (11747572_a_at) / RFU HAMP (11756126_x_at) / Fold change /veh HAMP (11756126_x_at) / RFU RNFT2 (11725882_a_at) / Fold change /veh RNFT2 (11725882_a_at) / RFU NR4A2 (11747474_a_at) / Fold change /veh NR4A2 (11747474_a_at) / RFU ABCC12 (11746883_a_at) / Fold change /veh ABCC12 (11746883_a_at) / RFU TMEM136 (11760407_x_at) / Fold change /veh TMEM136 (11760407_x_at) / RFU CLDN22 /// WWC2 (11732394_at) / Fold change /veh CLDN22 /// WWC2 (11732394_at) / RFU HLA-DPB1 (11760878_x_at) / Fold change /veh HLA-DPB1 (11760878_x_at) / RFU SPINT1 (11716480_a_at) / Fold change /veh SPINT1 (11716480_a_at) / RFU GAP43 (11754022_s_at) / Fold change /veh GAP43 (11754022_s_at) / RFU A4GNT (11735810_at) / Fold change /veh A4GNT (11735810_at) / RFU PRB3 (11715151_x_at) / Fold change /veh PRB3 (11715151_x_at) / RFU TUBB4B (11761932_at) / Fold change /veh TUBB4B (11761932_at) / RFU CAPN14 (11732068_a_at) / Fold change /veh CAPN14 (11732068_a_at) / RFU TMCC2 (11721928_a_at) / Fold change /veh TMCC2 (11721928_a_at) / RFU IRGQ (11745062_a_at) / Fold change /veh IRGQ (11745062_a_at) / RFU FAM174B (11720279_a_at) / Fold change /veh FAM174B (11720279_a_at) / RFU TMPRSS4 (11748680_a_at) / Fold change /veh TMPRSS4 (11748680_a_at) / RFU FAM212B (11763350_a_at) / Fold change /veh FAM212B (11763350_a_at) / RFU PLEKHG5 (11743358_a_at) / Fold change /veh PLEKHG5 (11743358_a_at) / RFU ZSCAN30 (11745921_a_at) / Fold change /veh ZSCAN30 (11745921_a_at) / RFU CMKLR1 (11741424_a_at) / Fold change /veh CMKLR1 (11741424_a_at) / RFU LOC101060620 /// MAPK8IP1 (11723275_at) / Fold change /veh LOC101060620 /// MAPK8IP1 (11723275_at) / RFU SPTSSB (11747773_x_at) / Fold change /veh SPTSSB (11747773_x_at) / RFU PRSS12 (11739890_at) / Fold change /veh PRSS12 (11739890_at) / RFU BIN1 (11741810_x_at) / Fold change /veh BIN1 (11741810_x_at) / RFU WNT11 (11732464_a_at) / Fold change /veh WNT11 (11732464_a_at) / RFU C10orf10 (11716521_a_at) / Fold change /veh C10orf10 (11716521_a_at) / RFU C5orf56 (11738089_at) / Fold change /veh C5orf56 (11738089_at) / RFU CYB561 (11721691_x_at) / Fold change /veh CYB561 (11721691_x_at) / RFU ANKRD19P (11752326_a_at) / Fold change /veh ANKRD19P (11752326_a_at) / RFU OR2T12 /// OR2T33 /// OR2T8 (11738714_s_at) / Fold change /veh OR2T12 /// OR2T33 /// OR2T8 (11738714_s_at) / RFU VCAN (11748164_a_at) / Fold change /veh VCAN (11748164_a_at) / RFU JSRP1 (11732532_at) / Fold change /veh JSRP1 (11732532_at) / RFU KRTAP10-11 (11738290_x_at) / Fold change /veh KRTAP10-11 (11738290_x_at) / RFU MYO3A (11730013_a_at) / Fold change /veh MYO3A (11730013_a_at) / RFU EBF3 (11725865_a_at) / Fold change /veh EBF3 (11725865_a_at) / RFU CAMK2N1 (11719241_x_at) / Fold change /veh CAMK2N1 (11719241_x_at) / RFU C5orf56 (11738088_a_at) / Fold change /veh C5orf56 (11738088_a_at) / RFU OLFML3 (11715873_a_at) / Fold change /veh OLFML3 (11715873_a_at) / RFU LOC100653217 /// NTM (11731650_a_at) / Fold change /veh LOC100653217 /// NTM (11731650_a_at) / RFU MAPK11 (11762145_a_at) / Fold change /veh MAPK11 (11762145_a_at) / RFU FIZ1 (11724087_x_at) / Fold change /veh FIZ1 (11724087_x_at) / RFU OASL (11726364_x_at) / Fold change /veh OASL (11726364_x_at) / RFU SOX15 (11748057_x_at) / Fold change /veh SOX15 (11748057_x_at) / RFU CD79A (11719716_a_at) / Fold change /veh CD79A (11719716_a_at) / RFU HIST1H1D (11736915_at) / Fold change /veh HIST1H1D (11736915_at) / RFU CASKIN2 (11723855_a_at) / Fold change /veh CASKIN2 (11723855_a_at) / RFU LOC730098 (11760151_x_at) / Fold change /veh LOC730098 (11760151_x_at) / RFU OR4N2 (11742367_at) / Fold change /veh OR4N2 (11742367_at) / RFU PRRT2 (11749266_a_at) / Fold change /veh PRRT2 (11749266_a_at) / RFU SNX32 (11753110_a_at) / Fold change /veh SNX32 (11753110_a_at) / RFU CDHR5 (11726645_a_at) / Fold change /veh CDHR5 (11726645_a_at) / RFU RCAN1 (11760418_a_at) / Fold change /veh RCAN1 (11760418_a_at) / RFU FAM167A (11723789_a_at) / Fold change /veh FAM167A (11723789_a_at) / RFU FAM26E (11764081_at) / Fold change /veh FAM26E (11764081_at) / RFU ISYNA1 (11749810_s_at) / Fold change /veh ISYNA1 (11749810_s_at) / RFU ACY1 (11761880_at) / Fold change /veh ACY1 (11761880_at) / RFU 11764098_at / Fold change /veh 11764098_at / RFU SAMD14 (11745864_x_at) / Fold change /veh SAMD14 (11745864_x_at) / RFU NPB (11741838_a_at) / Fold change /veh NPB (11741838_a_at) / RFU TMPRSS6 (11731388_a_at) / Fold change /veh TMPRSS6 (11731388_a_at) / RFU KRTAP10-2 (11738614_at) / Fold change /veh KRTAP10-2 (11738614_at) / RFU ARHGAP8 /// PRR5-ARHGAP8 (11727945_x_at) / Fold change /veh ARHGAP8 /// PRR5-ARHGAP8 (11727945_x_at) / RFU KRTAP5-7 /// NADSYN1 (11734609_at) / Fold change /veh KRTAP5-7 /// NADSYN1 (11734609_at) / RFU RASL12 (11751679_a_at) / Fold change /veh RASL12 (11751679_a_at) / RFU CDKN2B (11736163_a_at) / Fold change /veh CDKN2B (11736163_a_at) / RFU PRF1 (11729649_at) / Fold change /veh PRF1 (11729649_at) / RFU, ZNF638 /// ZNF638-IT1 / Fold change vs veh, ZNF638 /// ZNF638-IT1 / RFU, PANK3 / Fold change vs veh, PANK3 / RFU, SH3YL1 / Fold change vs veh, SH3YL1 / RFU, ZEB2 / Fold change vs veh, ZEB2 / RFU, NRIP1 / Fold change vs veh, NRIP1 / RFU, PTTG1IP / Fold change vs veh, PTTG1IP / RFU, CAPN2 / Fold change vs veh, CAPN2 / RFU, MED14 / Fold change vs veh, MED14 / RFU, SNORA58 / Fold change vs veh, SNORA58 / RFU, C1orf63 / Fold change vs veh, C1orf63 / RFU, LRRFIP1 / Fold change vs veh, LRRFIP1 / RFU, NDUFAF7 / Fold change vs veh, NDUFAF7 / RFU, SLC12A2 / Fold change vs veh, SLC12A2 / RFU, IBTK / Fold change vs veh, IBTK / RFU, ESF1 / Fold change vs veh, ESF1 / Fold change vs veh, TMEM50B / RFU, TAOK1 / Fold change vs veh, TAOK1 / RFU, ACBD3 / Fold change vs veh, ACBD3 / RFU, TMA16 / Fold change vs veh, TMA16 / RFU, RWDD3 / Fold change vs veh, RWDD3 / RFU, BCAT1 / Fold change vs veh, BCAT1 / RFU, EDEM3 / Fold change vs veh, EDEM3 / RFU, TMEM33 / Fold change vs veh, TMEM33 / RFU, WDR75 / Fold change vs veh, WDR75 / RFU, AHCTF1 / Fold change vs veh, AHCTF1 / RFU, TFRC / Fold change vs veh, TFRC / RFU, ZDHHC17 / Fold change vs veh, ZDHHC17 / RFU, NOM1 / Fold change vs veh, NOM1 / RFU, ARL8B / Fold change vs veh, ARL8B / RFU, ZBTB11 / Fold change vs veh, ZBTB11 / RFU, TAMM41 / Fold change vs veh, TAMM41 / RFU, KIAA1704 /// LOC100996395 / Fold change vs veh, KIAA1704 /// LOC100996395 / RFU, ING1 / Fold change vs veh, ING1 / RFU, TRMT61B / Fold change vs veh, TRMT61B / RFU, FUBP3 / Fold change vs veh, FUBP3 / RFU, TP53 / Fold change vs veh, TP53 / RFU, TNKS2 / Fold change vs veh, TNKS2 / RFU, ZFP14 / Fold change vs veh, ZFP14 / RFU, ACTR2 / Fold change vs veh, ACTR2 / RFU, PPP3R1 / Fold change vs veh, PPP3R1 / RFU, PIK3R1 / Fold change vs veh, PIK3R1 / RFU, HNRNPA1 / Fold change vs veh, HNRNPA1 / RFU, RNF170 / Fold change vs veh, RNF170 / RFU, ZNF28 / Fold change vs veh, ZNF28 / RFU, RNGTT / Fold change vs veh, RNGTT / RFU, OGT / Fold change vs veh, OGT / RFU, BRD1 / Fold change vs veh, BRD1 / RFU, MARS / Fold change vs veh, MARS / RFU, ZNF655 / Fold change vs veh, ZNF655 / RFU, FAHD1 / Fold change vs veh, FAHD1 / RFU, BDP1 / Fold change vs veh, BDP1 / RFU, LRRCC1 / Fold change vs veh, LRRCC1 / RFU, ARID1A / Fold change vs veh, ARID1A / RFU, ZNF146 / Fold change vs veh, ZNF146 / RFU, ZNF330 / Fold change vs veh, ZNF330 / RFU, GPN3 / Fold change vs veh, GPN3 / RFU, C9orf123 / Fold change vs veh, C9orf123 / RFU, N4BP2L2 / Fold change vs veh, N4BP2L2 / RFU, ARFIP1 / Fold change vs veh, ARFIP1 / RFU, FAM179B / Fold change vs veh, FAM179B / RFU, BCL10 / Fold change vs veh, BCL10 / RFU, UHRF1BP1L / Fold change vs veh, UHRF1BP1L / RFU, BET1 / Fold change vs veh, BET1 / RFU, CNOT2 / Fold change vs veh, CNOT2 / RFU, ZNF268 / Fold change vs veh, ZNF268 / Fold change vs veh, ZNF507 / RFU, DGCR2 / Fold change vs veh, DGCR2 / RFU, WDSUB1 / Fold change vs veh, WDSUB1 / Fold change vs veh, HSP90B1 /// MIR3652 / RFU, ADSS / Fold change vs veh, ADSS / RFU, GK / Fold change vs veh, GK / RFU, ZNF148 / Fold change vs veh, ZNF148 / RFU, TAF9 / Fold change vs veh, TAF9 / RFU, SLC1A5 / Fold change vs veh, SLC1A5 / RFU, SLMO2 / Fold change vs veh, SLMO2 / RFU, ABCC4 / Fold change vs veh, ABCC4 / RFU, LOC101060439 /// RAP1B / Fold change vs veh, LOC101060439 /// RAP1B / RFU, RFX7 / Fold change vs veh, RFX7 / RFU, GTPBP10 / Fold change vs veh, GTPBP10 / RFU, CNEP1R1 / Fold change vs veh, CNEP1R1 / RFU, BIVM-ERCC5 /// ERCC5 / Fold change vs veh, BIVM-ERCC5 /// ERCC5 / RFU, ILF3 / Fold change vs veh, ILF3 / RFU 11762660_at / Fold change /veh 11762660_at / RFU VCAN (11757783_s_at) / Fold change /veh VCAN (11757783_s_at) / RFU DDX43 (11728927_at) / Fold change /veh DDX43 (11728927_at) / RFU KRT8 (11758188_x_at) / Fold change /veh KRT8 (11758188_x_at) / RFU NKD1 (11759106_at) / Fold change /veh NKD1 (11759106_at) / RFU SRD5A1 (11742802_a_at) / Fold change /veh SRD5A1 (11742802_a_at) / RFU TPSAB1 /// TPSB2 (11721975_s_at) / Fold change /veh TPSAB1 /// TPSB2 (11721975_s_at) / RFU GSTM3 (11746129_a_at) / Fold change /veh GSTM3 (11746129_a_at) / RFU IL23R (11737362_x_at) / Fold change /veh IL23R (11737362_x_at) / RFU TMEM51 (11727254_a_at) / Fold change /veh TMEM51 (11727254_a_at) / RFU PIWIL2 (11732686_x_at) / Fold change /veh PIWIL2 (11732686_x_at) / RFU ORM1 (11744905_x_at) / Fold change /veh ORM1 (11744905_x_at) / RFU CCDC152 (11743942_at) / Fold change /veh CCDC152 (11743942_at) / RFU ECM1 (11717891_a_at) / Fold change /veh ECM1 (11717891_a_at) / RFU IL23R (11748794_a_at) / Fold change /veh IL23R (11748794_a_at) / RFU TNFAIP8L3 (11732012_x_at) / Fold change /veh TNFAIP8L3 (11732012_x_at) / RFU MBOAT4 (11741988_at) / Fold change /veh MBOAT4 (11741988_at) / RFU 11764193_at / Fold change /veh 11764193_at / RFU TMEM53 (11763286_at) / Fold change /veh TMEM53 (11763286_at) / RFU MAGEB2 (11727129_at) / Fold change /veh MAGEB2 (11727129_at) / RFU TMEM200A (11744735_a_at) / Fold change /veh TMEM200A (11744735_a_at) / RFU CCDC152 (11751479_a_at) / Fold change /veh CCDC152 (11751479_a_at) / RFU FAM211A (11726209_a_at) / Fold change /veh FAM211A (11726209_a_at) / RFU RGS16 (11746705_a_at) / Fold change /veh RGS16 (11746705_a_at) / RFU VCAN (11755009_s_at) / Fold change /veh VCAN (11755009_s_at) / RFU RHOB (11743442_s_at) / Fold change /veh RHOB (11743442_s_at) / RFU RGS16 (11720943_a_at) / Fold change /veh RGS16 (11720943_a_at) / RFU RGS16 (11720944_at) / Fold change /veh RGS16 (11720944_at) / RFU, VPS4B / Fold change vs veh, VPS4B / RFU, CREB1 / Fold change vs veh, CREB1 / RFU, DNAJC13 / Fold change vs veh, DNAJC13 / RFU, GNAQ / Fold change vs veh, GNAQ / RFU, CDK5R1 / Fold change vs veh, CDK5R1 / RFU, ZRANB3 / Fold change vs veh, ZRANB3 / RFU, CUL4A / Fold change vs veh, CUL4A / RFU, CCNY / Fold change vs veh, CCNY / RFU, UFL1 / Fold change vs veh, UFL1 / RFU, COG3 / Fold change vs veh, COG3 / RFU, DIAPH2 / Fold change vs veh, DIAPH2 / RFU, SKA2 / Fold change vs veh, SKA2 / RFU, AFF3 / Fold change vs veh, AFF3 / RFU, LMF1 / Fold change vs veh, LMF1 / RFU, IPO11 / Fold change vs veh, IPO11 / RFU, DFFB / Fold change vs veh, DFFB / RFU, FOXP1 / Fold change vs veh, FOXP1 / RFU, CARD8 / Fold change vs veh, CARD8 / RFU, STRN3 / Fold change vs veh, STRN3 / RFU, ADK / Fold change vs veh, ADK / RFU, RASSF2 / Fold change vs veh, RASSF2 / RFU, WIPF1 / Fold change vs veh, WIPF1 / RFU, LARP1B / Fold change vs veh, LARP1B / RFU, RASA1 / Fold change vs veh, RASA1 / RFU, RB1 / Fold change vs veh, RB1 / RFU, PPFIA1 / Fold change vs veh, PPFIA1 / RFU, MAT2A / Fold change vs veh, MAT2A / RFU, CCT5 / Fold change vs veh, CCT5 / RFU, WDR92 / Fold change vs veh, WDR92 / RFU, CUX1 / Fold change vs veh, CUX1 / RFU, TTC7A / Fold change vs veh, TTC7A / RFU, TMEM135 / Fold change vs veh, TMEM135 / RFU, DEPTOR / Fold change vs veh, DEPTOR / RFU, CPM / Fold change vs veh, CPM / RFU, DNAJB6 / Fold change vs veh, DNAJB6 / RFU, CACNA2D3 / Fold change vs veh, CACNA2D3 / RFU, DTX4 / Fold change vs veh, DTX4 / RFU, TFCP2 / Fold change vs veh, TFCP2 / RFU, GMCL1 /// GMCL1P1 / Fold change vs veh, GMCL1 /// GMCL1P1 / RFU, AEBP2 / Fold change vs veh, AEBP2 / RFU, SNHG1 /// SNORD22 /// SNORD25 /// SNORD26 /// SNORD27 /// SNORD28 /// SNORD29 /// SNORD31 / Fold change vs veh, SNHG1 /// SNORD22 /// SNORD25 /// SNORD26 /// SNORD27 /// SNORD28 /// SNORD29 /// SNORD31 / Fold change (Aza/veh), C12orf56 (ProbeSet 11735607_a_at) / Fold change (ACY-1035/veh), C12orf56 (ProbeSet 11735607_a_at) / Fold change (Aza/veh), FGFR1OP (ProbeSet 11751329_s_at) / Fold change (ACY-1035/veh), FGFR1OP (ProbeSet 11751329_s_at) / Fold change (Aza/veh), VPS36 (ProbeSet 11739960_a_at) / Fold change (ACY-1035/veh), VPS36 (ProbeSet 11739960_a_at) / RFU SYPL1 (11715823_x_at) / Fold change /veh SYPL1 (11715823_x_at) / RFU IGFBP7 (11715501_s_at) / Fold change /veh IGFBP7 (11715501_s_at) / RFU REEP3 (11722064_at) / Fold change /veh REEP3 (11722064_at) / RFU IGLL1 (11728026_x_at) / Fold change /veh IGLL1 (11728026_x_at): dose or concentration left out as unconfirmed
Settings: ProbeSet 11727641_at; LIST B

In the case of `Nc1ccc(-c2cccs2)cc1NC(=O)c1ccc2c(c1)cc(C1CC1)n2CCN1CCOCC1` [ACY-1035], the “Fold change vs veh, NOM1” value is reported as 0.95.
